System: GAB2-pS210
Test: In vitro dephosphorylation of GAB2-pS210 (Western blot)
Type: biochemical, human
Details: GAB2-pS210 relative to GAB2, Calyculin A 20 nM 12 min in HeLa Kyoto cells, recombinant PP1c 1 µM, 1 h at 30 °C in lysate
Experimental: pEGFP(C1)-14-3-3β or pCMV-GAB2-3FLAG was transfected into HeLa Kyoto cells as described in the respective section for 24 h. Cells were incubated with or w/o 20 nM Calyculin A (# 9902 S, Cell Signaling Technology) in complete growth media for 12 min. Cells were washed twice on ice with cold PBS and after addition of 500 µL lysis buffer (100 mM NaCl, 10 mM Tris, 0.1% IGEPAL, 1 mM EDTA, 1 mM EGTA, 20 nM Calyculin A, 1x cOmplete Mini protease inhibitor cocktail (Sigma), 2 mM DTT, 2 mM MnCl2) cells were scraped from plates, lysed by 10 pushes through an injection needle and the insoluble fraction was pelleted by centrifugation (10 min, 10^4 rcf, 4 °C). […] Beads were then washed three times with lysis buffer and samples were eluted in 1x SDS sample buffer by heating to 95 °C for 10 min and further analyzed by SDS PAGE for 14-3-3/GAB2 association and phosphorylation status of GAB2-pS210.
For SDS-PAGE, samples were loaded on NuPAGE™ 4-12% Bis-Tris protein gels (Invitrogen) and gel electrophoresis was performed at 180 V constant in 1x MOPS buffer. […] All blots were quantified using raw images and ImageLab software (v6.0.1, BioRad): Files were imported and analyzed without further modifications. […] The quantification was exported from the analysis table and measurements of background adjusted band volumes where used for further normalization steps and graphical depiction. […]

PP1c: recombinant catalytic subunit of PP1
p-level of GAB2 pS210: decrease in the p-level

From article PMC7367873, “Dissecting the sequence determinants for dephosphorylation by the catalytic subunits of phosphatases PP1 and PP2A” (Nature Communications, 2020)
